In US6900193B1, “Structural modification of 19-norprogesterone I: 17-α-substituted-11-β-substituted-4-aryl and 21-substituted 19-norpregnadienedione as new antiprogestational agents” (The United States of America as represented by the …, priority 1996, dated 2005):

Key:
[1] = system: progesterone-induced endometrial proliferation; assay: AntiMcGinty test; format: in vivo, rabbit; settings: for ANTIPROGESTATIONAL Anti-McGinty: relative potency, CDB-2914 = 100 (assigned), intraluminal, rabbit
Method: AntiMcGinty Test (McGinty, et al., Endocrinology, 24:829-832 (1939))
Immature female rabbits of the New Zealand White breed (approx. 1 kg body weight) were maintained under standard laboratory conditions and received a subcutaneous injection of 5 μg estradiol in 10% ethanol/sesame oil daily for 6 consecutive days. Twenty-four hours after the last injection of estradiol (day 7) animals underwent sterile abdominal surgery to ligate a 3-4 cm segment of both uterine horns. The experimental compound in appropriate solvent (usually 10% ethanol/sesame oil) was injected intraluminally into the ligated segment of one uterine horn and the vehicle alone into the ligated segment of the contralateral horn. Injection volume was limited to 0.1 ml, and care was taken to prevent leakage. A stimulating dose of progesterone (0.8 mg/day) was administered subcutaneously to each rabbit daily for the next three days (days 7, 8 and 9) for the purpose of inducing endometrial proliferation. All animals were sacrificed on day 10 when a segment central to the ligatures was removed and fixed in 10% neutral buffered formalin and submitted for histological processing. Five micron sections stained with hematoxylin and eosin (H&E) were evaluated microscopically for the degree of endometrial glandular proliferation according to the method of McPhail (McPhail, J. Physiol., 83:145 (1934). The percent inhibition of endometrial proliferation for each rabbit was calculated and the mean of the group of five animals recorded.

[2] = biological target: T1, progesterone receptor (estrogen-primed rabbit uterus) (Oryctolagus cuniculus, UniProt P06186); assay: Relative binding affinity, progesterone receptor; settings: for RELATIVE BINDING AFFINITY Progesterone / BINDING AFFINITY Progester: estrogen-primed rabbit uterus, progesterone = 100%; for binding affinities compared with the standard, compound 69B: progesterone receptor implied (rabbit or human isoform A not specified); for BINDING AFFINITY Progester: Table 2
T1 construct: preparation of cytosols for the progesterone and glucocorticoid receptor assays; from tissue; host or cells: uterus of estradiol-primed immature female New Zealand White rabbits (cytosol)
T1 sequence (P06186 1-930): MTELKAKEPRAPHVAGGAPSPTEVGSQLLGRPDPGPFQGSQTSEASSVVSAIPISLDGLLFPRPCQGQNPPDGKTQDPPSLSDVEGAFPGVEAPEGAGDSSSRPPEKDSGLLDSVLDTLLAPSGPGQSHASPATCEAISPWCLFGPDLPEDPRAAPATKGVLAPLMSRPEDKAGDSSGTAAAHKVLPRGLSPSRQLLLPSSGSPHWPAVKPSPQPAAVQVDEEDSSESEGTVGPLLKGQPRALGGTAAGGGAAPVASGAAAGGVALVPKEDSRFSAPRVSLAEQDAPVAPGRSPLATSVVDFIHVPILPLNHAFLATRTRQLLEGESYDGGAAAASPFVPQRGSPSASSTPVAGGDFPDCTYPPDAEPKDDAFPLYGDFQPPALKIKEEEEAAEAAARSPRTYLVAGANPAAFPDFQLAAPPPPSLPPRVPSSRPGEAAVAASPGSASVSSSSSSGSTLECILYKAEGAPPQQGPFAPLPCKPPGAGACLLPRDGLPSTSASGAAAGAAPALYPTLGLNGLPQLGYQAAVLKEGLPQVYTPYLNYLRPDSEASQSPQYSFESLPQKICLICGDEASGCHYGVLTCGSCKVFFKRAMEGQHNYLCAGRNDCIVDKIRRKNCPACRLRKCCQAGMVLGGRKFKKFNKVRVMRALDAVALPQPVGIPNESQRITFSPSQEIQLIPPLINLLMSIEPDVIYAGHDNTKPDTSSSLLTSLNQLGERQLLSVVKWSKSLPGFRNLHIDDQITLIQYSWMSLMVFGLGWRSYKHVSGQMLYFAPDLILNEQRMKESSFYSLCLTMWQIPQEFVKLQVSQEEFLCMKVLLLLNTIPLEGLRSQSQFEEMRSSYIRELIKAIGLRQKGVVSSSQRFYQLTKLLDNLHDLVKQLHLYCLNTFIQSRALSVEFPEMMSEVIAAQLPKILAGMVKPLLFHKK
Method: (§1) Relative Binding Affinities for the Progesterone and Glucocorticoid Receptors
(§2) Uteri and thymus glands were obtained from estradiol-primed immature female rabbits of the New Zealand White strain for preparation of cytosols for the progesterone and glucocorticoid receptor assays, respectively. Tissues were excised and immediately placed in ice cold TEGDM buffer (10 mM Tris, pH 7.4; 1.5 mM EDTA; 10% glycerol vol/vol/; 1 mM dithiothreitol [DTT]; and 20 mM sodium molybdate). The tissues were dissected free of connective tissue and fat, weighed and minced finely. Minced tissues were homogenized in 3 volumes TEGDM/gm with four 10 second bursts of a VirTis Cyclone set at half maximum speed with a 30 second cooling period (in ice) between bursts. Homogenates were centrifuged at 109,663 g at 4° C. for 1 hour to yield the soluble cytosol fiction. Aliquots of cytosol were snap frozen and stored at −75° C.
(§3) All binding assays were carried out at 2-6° C. for 16-18 hours. The following radioactive ligands were used: [1,2-^3H(N)]-progesterone (50.0 Ci/mmole) for the progesterone receptor (PR). […] For the progesterone receptor RBA assays 0.02 ml uterine cytosol or TEDGM buffer, 0.05 ml of various concentrations of test compounds or progesterone, 0.13 ml TEGDM buffer and 0.05 ml [^3H]-progesterone were added to duplicate tubes. For the glucocorticoid receptor RBA assays 0.1 ml thymus cytosol or TEDGM buffer, 0.05 ml of various concentrations of test compounds or dexamethasone, 0.05 ml TEGDM buffer and 0.05 ml [3H]-dexamethasone were added to duplicate tubes. For the estrogen receptor RBA assays 0.05 ml uterine cytosol, 0.1 ml TEGDM buffer, 0.05 ml of various concentrations of test compounds or estradiol and 0.05 ml [^3H]-estradiol were added to duplicate tubes. The concentrations of the test compounds, progesterone, dexamethasone and estradiol ranged from 0.05 to 100 nM and the concentrations of the competitors ranged from 0.5 to 500 nM. Total binding was measured at radioligand concentrations of 3.5 nM and nonspecific binding was measured in the presence of a 200-fold excess of unlabeled progesterone (PR), dexamethasone (GR) or diethylstilbestrol (ER), respectively.
(§4) In all incubations bound and free ligand were separated using dextra-coated charcoal (DCC). A 0.1 ml aliquot of DCC (0.5% charcoal/0.05% Dextran T-70) was added to each tube. The tubes were vortexed and incubated on ice for 10 minutes. Five-tenths ml TEG buffer (without DTT or molybdate) was then added to all tubes to improve supernatant recovery following centrifugation. The charcoal was pelleted by centrifugation at 2,100 g for 15 minutes at 4° C. The supernatants containing the [^3H]-steroid receptor complexes were decanted into vials containing 4 ml Optifluor (Packard Instrument Co.), vortexed, equilibrated in a liquid scintillation counter for 30 minutes and then counted for 2 minutes. This provided the quantity of receptor bound [^3H]-steroid at each competitor concentration.

[3] = biological target: T2, glucocorticoid receptor (estrogen-primed rabbit thymus) (Oryctolagus cuniculus, UniProt P59667); assay: Relative binding affinity, glucocorticoid receptor; settings: for RELATIVE BINDING AFFINITY Glucocorticoid / BINDING AFFINITY Glucocortic: estrogen-primed rabbit thymus, dexamethasone = 100%; for BINDING AFFINITY Glucocortic: Table 2
T2 construct: preparation of cytosols for the progesterone and glucocorticoid receptor assays; from tissue; host or cells: thymus of estradiol-primed immature female New Zealand White rabbits (cytosol)
T2 sequence (P59667 1-772): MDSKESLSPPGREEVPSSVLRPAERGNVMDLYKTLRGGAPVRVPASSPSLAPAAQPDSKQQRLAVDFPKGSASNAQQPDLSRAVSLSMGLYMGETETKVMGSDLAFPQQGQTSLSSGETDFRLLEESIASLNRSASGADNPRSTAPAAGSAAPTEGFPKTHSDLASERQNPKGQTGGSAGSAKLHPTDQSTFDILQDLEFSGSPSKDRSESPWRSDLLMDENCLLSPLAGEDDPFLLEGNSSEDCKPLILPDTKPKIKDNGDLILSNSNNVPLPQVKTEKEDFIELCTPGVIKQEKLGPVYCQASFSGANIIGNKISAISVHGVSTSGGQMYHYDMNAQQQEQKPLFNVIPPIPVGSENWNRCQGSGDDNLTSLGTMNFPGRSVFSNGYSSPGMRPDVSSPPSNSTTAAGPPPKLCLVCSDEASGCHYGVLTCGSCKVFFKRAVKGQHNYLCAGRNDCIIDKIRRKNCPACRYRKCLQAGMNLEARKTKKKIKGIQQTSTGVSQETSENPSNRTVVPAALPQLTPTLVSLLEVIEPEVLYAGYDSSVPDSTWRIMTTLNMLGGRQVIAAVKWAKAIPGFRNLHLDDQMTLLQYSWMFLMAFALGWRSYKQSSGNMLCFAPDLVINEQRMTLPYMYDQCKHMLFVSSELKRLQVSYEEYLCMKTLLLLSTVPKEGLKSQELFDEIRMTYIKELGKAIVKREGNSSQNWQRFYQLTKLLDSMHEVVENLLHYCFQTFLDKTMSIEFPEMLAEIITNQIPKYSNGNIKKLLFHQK
Method: as §1, §2, §3, §4

[4] = system: progesterone-induced endometrial proliferation; assay: AntiClauberg test; format: in vivo, rabbit; settings: oral; for BIOLOGICAL ACTIVITY antiClauberg: Table 2, CDB-2914 = 100 (assigned)
Method: AntiClauberg Test (Clauberg, C., Zentr. Gynakol., 54:2757-2770 (1930)) Immature female rabbits of the New Zealand White breed (approx. 1 kg body weight) were maintained under standard laboratory conditions and received a subcutaneous injection of 5 μg estradiol in 10% ethanol/sesame oil daily for 6 consecutive days. Twenty-four hours after the last dose of estradiol (day 7) animals received progesterone by subcutaneous injection (0.8 mg/day) and the experimental compound in appropriate vehicle (usually 10% ethanol/sesame oil) orally or subcutaneously for five consecutive days. One group of rabbits received progesterone only. Twenty-four hours after the last dose all animals were sacrificed for removal of the uterus which was cleaned of all fat and connective tissue, weighed to the nearest 0.2 mg and placed in 10% neutral buffered formalin for subsequent histological processing. Five micron sections stained with hematoxylin and eosin (H&E) were evaluated microscopically for the degree of endometrial glandular proliferation according to the method of McPhail (McPhail, supra). The percent inhibition of endometrial proliferation at each dose level of the experimental compound was derived by comparison with the progesterone-stimulated animals alone.

SMILES	antiprogestational activity compared with the lead compound / standard, in words ([1]; antiMcGinty (and antiClauberg), versus CDB-2914 (69B))	ANTIPROGESTATIONAL Anti-McGinty [1]	RELATIVE BINDING AFFINITY Progesterone [2]	binding affinities compared with the standard, compound 69B [2]	binding affinity for the progesterone receptor, in words ([2]; rabbit uterine, versus CDB-2914 (69B) where stated)	RELATIVE BINDING AFFINITY Glucocorticoid [3]	BIOLOGICAL ACTIVITY antiClauberg [4]	antiClauberg / oral antiprogestational activity, in words ([4]; versus the standard 69B)	BINDING AFFINITY Progester [2]	BINDING AFFINITY Glucocortic [3]	binding affinity for the glucocorticoid receptor, in words ([3]; rabbit thymus, versus CDB-2914 (69B) where stated)
CC(=O)O[C@]1(C(=O)CBr)CCC2C3CCC4=CC(=O)CCC4=C3C(c3ccc(N(C)C)cc3)C[C@@]21C (stereo partly drawn) [Compound 14B, 17α-acetoxy-21-bromo-11β-[4-(N,N-dimethylamino)phenyl]-19-norpregna-4,9-diene-3,20-dione]	did not show significant differences	71	130%	binding affinities greater than that observed for the standard	did not show significant differences	175%	–	–	–	–	–
CC(=O)SCC(=O)C1(O)CCC2C3CCC4=CC(=O)CCC4=C3C(c3ccc(N(C)C)cc3)CC21C (stereo not shown) [Compound 16]	–	>2	6%	–	–	77%	–	–	–	–	–
CC(=O)O[C@]1(C(=O)CSC(C)=O)CC[C@H]2[C@@H]3CCC4=CC(=O)CCC4=C3[C@@H](c3ccc(N(C)C)cc3)C[C@@]21C [Compound 17, 17α-acetoxy-21-acetylthio-11β-[4-(N,N-dimethylamino)phenyl]-19-norpregna-4,9-diene-3,20-dione]	–	65	37%	–	–	54%	–	–	–	–	–
CCC(=O)[C@@]1(OC(C)=O)CCC2C3CCC4=CC(=O)CCC4=C3C(c3ccc(N(C)C)cc3)C[C@@]21C (stereo partly drawn) [Compound 28, 17α-acetoxy-21-methyl-11β-[4-(N,N-dimethylamino)phenyl]-19-norpregna-4,9-diene-3,20-dione]	–	32	129%	binding affinities greater than that observed for the standard	–	126%	–	–	–	–	–
C=COCC(=O)[C@@]1(OC(C)=O)CCC2C3CCC4=CC(=O)CCC4=C3C(c3ccc(N(C)C)cc3)C[C@@]21C (stereo partly drawn) [Compound 129, 17α-Acetoxy-11β-[4-(N,N-dimethylamino)phenyl]-21-(1′-ethenyloxy)-19-norpregna-4,9-diene-3,20-dione]	–	–	–	binding affinities greater than that observed for the standard	–	–	303	greater activity than the standard	155%	20%	low binding affinity
CC(=O)O[C@]1(C(=O)COC(=O)CN(C)C)CC[C@H]2[C@@H]3CCC4=CC(=O)CCC4=C3[C@@H](c3ccc(N(C)C)cc3)C[C@@]21C [Compound 133, 17α-Acetoxy-1-[4-(N,N-dimethylamino)phenyl]-21-(2′-N,N-dimethylamino)acetoxy-19-norpregna-4,9-diene-3,20-dione]	–	–	–	–	–	–	95	–	82%	13%	–
CN(C)c1ccc([C@H]2C[C@@]3(C)[C@@H](CC[C@]3(OC=O)C(=O)COC=O)[C@@H]3CCC4=CC(=O)CCC4=C32)cc1 [Compound 139, 17α,21-Diformyloxy-11β-[4-(N,N-dimethylamino)phenyl]-19-norpregna-4,9-diene-3,20-dione]	–	–	–	–	–	–	inactive	–	30%	79%	–
